#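 Growth conditions: 96-well plates. Treatment: test compound, 48 hours, 5 concentrations. Analysis: linear interpolation between bracketing concentrations; unreached endpoints set to highest concentration. At the GI50, growth is halved. TGI: concentration producing complete growth inhibition.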
# Legend:
# Assay in all cases: growth of human tumour cells (NCI), 48 h
# [1] = system: 786-0 renal
# [2] = system: A498 renal
# [3] = system: A549 NSCLC
# [4] = system: ACHN renal
# [5] = system: BT-549 breast
# [6] = system: CAKI-1 renal
# [7] = system: CCRF-CEM leukemia
# [8] = system: COLO 205 colon
# [9] = system: DU-145 prostate
# [10] = system: EKVX NSCLC
# [11] = system: HCC-2998 colon
# [12] = system: HCT-116 colon
# [13] = system: HCT-15 colon
# [14] = system: HL-60(TB) leukemia
# [15] = system: HOP-62 NSCLC
# [16] = system: HOP-92 NSCLC
# [17] = system: HS 578T breast
# [18] = system: HT29 colon
# [19] = system: IGROV1 ovarian
# [20] = system: K-562 leukemia
# [21] = system: KM12 colon
# [22] = system: LOX IMVI melanoma
# [23] = system: M14 melanoma
# [24] = system: MALME-3M melanoma
# [25] = system: MCF7 breast
# [26] = system: MDA-MB-231 breast
# [27] = system: MDA-MB-435
# [28] = system: MOLT-4 leukemia
# [29] = system: NCI-H226 lung
# [30] = system: NCI-H23 lung
# [31] = system: NCI-H460 lung
# [32] = system: NCI-H522 lung
# [33] = system: NCI/ADR-RES ovarian
# [34] = system: OVCAR-3 ovarian
# [35] = system: OVCAR-4 ovarian
# [36] = system: OVCAR-5 ovarian
# [37] = system: OVCAR-8 ovarian
# [38] = system: PC-3 prostate
# [39] = system: RXF 393 renal
# [40] = system: SF-268 CNS
# [41] = system: SF-295 CNS
# [42] = system: SF-539 CNS
# [43] = system: SK-MEL-2 melanoma
# [44] = system: SK-MEL-28 melanoma
# [45] = system: SK-MEL-5 melanoma
# [46] = system: SK-OV-3 ovarian
# [47] = system: SN12C renal
# [48] = system: SNB-19 CNS
# [49] = system: SR leukemia
# [50] = system: SW-620 colon
# [51] = system: T-47D breast
# [52] = system: TK-10 renal
# [53] = system: U251 CNS
# [54] = system: UACC-257 melanoma
# [55] = system: UACC-62 melanoma
# [56] = system: UO-31 renal
structure (smiles),measurement,setting,value
CC1=CC[C@@H]2C(C)(C)[C@@H](O)CC[C@@]2(C)[C@@H]1COc1ccc2ccc(=O)oc2c1,GI50,[1],13 µM
same,TGI,[1],28 µM
same,GI50,[2],0.905 µM
same,TGI,[2],19.9 µM
same,GI50,[3],5.68 µM
same,TGI,[3],22.8 µM
same,GI50,[4],5.11 µM
same,TGI,[4],19.6 µM
same,GI50,[5],2.9 µM
same,TGI,[5],8.23 µM
same,GI50,[6],4.11 µM
same,TGI,[6],20.9 µM
same,GI50,[7],3.39 µM
same,TGI,[7],19.9 µM
same,GI50,[8],5.35 µM
same,TGI,[8],23.6 µM
same,GI50,[9],5.39 µM
same,TGI,[9],17.8 µM
same,GI50,[10],10.3 µM
same,TGI,[10],26.7 µM
same,GI50,[11],12.7 µM
same,TGI,[11],27.4 µM
same,GI50,[12],4.6 µM
same,TGI,[12],18.7 µM
same,GI50,[13],3.6 µM
same,TGI,[13],15.8 µM
same,GI50,[14],3.27 µM
same,TGI,[14],14 µM
same,GI50,[15],6.84 µM
same,TGI,[15],26.1 µM
same,GI50,[16],3.83 µM
same,TGI,[16],18.2 µM
same,GI50,[17],3.29 µM
same,TGI,[17],23.4 µM
same,GI50,[18],9.83 µM
same,TGI,[18],44.6 µM
same,GI50,[19],6.03 µM
same,TGI,[19],22 µM
same,GI50,[20],3.28 µM
same,TGI,[20],27.5 µM
same,GI50,[21],4.18 µM
same,TGI,[21],15.7 µM
same,GI50,[22],4.77 µM
same,TGI,[22],19 µM
same,GI50,[23],7.2 µM
same,TGI,[23],21.3 µM
same,GI50,[24],8.04 µM
same,TGI,[24],22.4 µM
same,GI50,[25],7.3 µM
same,TGI,[25],27 µM
same,GI50,[26],13.9 µM
same,TGI,[26],43.3 µM
same,GI50,[27],10.3 µM
same,TGI,[27],23.9 µM
same,GI50,[28],3.14 µM
same,TGI,[28],15.7 µM
same,GI50,[29],4.28 µM
same,TGI,[29],19.8 µM
same,GI50,[30],10.8 µM
same,TGI,[30],33 µM
same,GI50,[31],7.68 µM
same,TGI,[31],25.7 µM
same,GI50,[32],3.81 µM
same,TGI,[32],22.1 µM
same,GI50,[33],3.22 µM
same,TGI,[33],12.7 µM
same,GI50,[34],4.34 µM
same,TGI,[34],16 µM
same,GI50,[35],3.66 µM
same,TGI,[35],12.7 µM
same,GI50,[36],16.6 µM
same,TGI,[36],42.3 µM
same,GI50,[37],3.77 µM
same,TGI,[37],17.2 µM
same,GI50,[38],3.28 µM
same,TGI,[38],15.9 µM
same,GI50,[39],13.2 µM
same,TGI,[39],35.3 µM
same,GI50,[40],6.5 µM
same,TGI,[40],26.3 µM
same,GI50,[41],10.8 µM
same,TGI,[41],23.1 µM
same,GI50,[42],12.3 µM
same,TGI,[42],28.5 µM
same,GI50,[43],5.49 µM
same,TGI,[43],21.9 µM
same,GI50,[44],11.8 µM
same,TGI,[44],26.7 µM
same,GI50,[45],3.48 µM
same,TGI,[45],12.7 µM
same,GI50,[46],15.5 µM
same,TGI,[46],32.3 µM
same,GI50,[47],4.77 µM
same,TGI,[47],22.7 µM
same,GI50,[48],14.3 µM
same,TGI,[48],42.9 µM
same,GI50,[49],7.92 µM
same,TGI,[49],42 µM
same,GI50,[50],9.94 µM
same,TGI,[50],27.2 µM
same,GI50,[51],2.27 µM
same,TGI,[51],7.14 µM
same,GI50,[52],12.5 µM
same,TGI,[52],26.4 µM
same,GI50,[53],8.82 µM
same,TGI,[53],27.9 µM
same,GI50,[54],12.4 µM
same,TGI,[54],26.2 µM
same,GI50,[55],3.52 µM
same,TGI,[55],14.5 µM
same,GI50,[56],2.99 µM
same,TGI,[56],13.1 µM

# — PubChem BioAssay (NCI)
